{"source": "paper PMC8752738", "about": "“A propolis-derived small molecule ameliorates metabolic syndrome in obese mice by targeting the CREB/CRTC2 transcriptional complex” (Nature Communications, 2022)", "system": "tissue mRNA levels", "test": "Quantitative PCR of tissue gene expression in treated mice", "assay_type": "in vivo, mouse", "parameters": "key to mRNA levels Scap / mRNA levels Insig1 / mRNA levels Ldlr / mRNA levels Mttp / mRNA levels Atgl / mRNA levels Tnfaip2 / mRNA levels Rxra / mRNA levels Srebf1 / mRNA levels Ucp2: mRNA level normalized to ribosomal L32 mRNA (internal control)", "experimental": "Total RNA from cells and tissues was extracted by Trizol (Invitrogen) and reverse-transcribed into cDNA using the prime script RT reagent kit with gDNA eraser (Takara). The mRNA levels were determined using the SYBR-green PCR kit (Takara) with ABIPRISM 7900HT Sequence detector (ABI) according to the manufacturer’s protocol. The quantitative qPCR primers used in this work are listed in Supplementary Table 1. Ribosomal L32 mRNA levels were used as an internal control.", "key": {"[1]": {"conditions": "Figure 6c, liver of DIO mice, individual animals"}, "[2]": {"conditions": "Figure 6e, BAT genes in DIO, individual animals"}, "[3]": {"conditions": "Figure 6e, group mean of APC-treated mice"}, "[4]": {"conditions": "Figure 6f, CRTC2KO mice, oral APC"}, "[5]": {"conditions": "Figure 6f, CRTC2KO mice, oral APC, group mean, N 6"}}, "note": "Several values for one entry are separate records, joined by “and”; a condition that tells them apart may be missing. Equal entries are not always repeated.", "data": [{"smiles": "CC(C)=CCc1cc(C=CC(=O)O)cc(CC=C(C)C)c1O", "note": "[APC, 3,5-diprenyl-4-hydroxycinnamic acid]", "values": [{"measurement": "mRNA levels Insig2b", "setting": "[1]", "value": "1.5012 and 1.204 and 1.275 and 1.326 and 1.226 and 1.358"}, {"measurement": "mRNA levels Ldlr", "setting": "[1]", "value": "0.5776 and 0.5891 and 0.5493 and 0.4914 and 0.6354 and 0.4723"}, {"measurement": "mRNA levels Lipg", "setting": "[1]", "value": "1.701 and 1.759 and 1.656 and 1.597 and 1.253 and 1.321"}, {"measurement": "mRNA levels Lxra", "setting": "[1]", "value": "0.4169 and 0.5629 and 0.5095 and 0.7537 and 0.4614 and 0.533"}, {"measurement": "mRNA levels Mgll", "setting": "[1]", "value": "1.478 and 2.215 and 1.692 and 2.155 and 1.663 and 2.019"}, {"measurement": "mRNA levels Mttp", "setting": "[1]", "value": "0.5875 and 0.5564 and 0.479 and 0.4246 and 0.6126 and 0.6576"}, {"measurement": "mRNA levels Pcsk9", "setting": "[1]", "value": "0.8854 and 0.7972 and 0.6933 and 0.8757 and 0.803 and 0.7825"}, {"measurement": "mRNA levels Pgc-1a", "setting": "[1]", "value": "0.841 and 0.8137 and 0.7443 and 0.6176 and 0.7797 and 0.5053"}, {"measurement": "mRNA levels Pgc-1b", "setting": "[1]", "value": "0.6848 and 0.6024 and 0.8301 and 0.5369 and 0.6396 and 0.6129"}, {"measurement": "mRNA levels Scap", "setting": "[1]", "value": "0.7134 and 0.6924 and 0.8986 and 0.7526 and 0.8965 and 0.6035"}, {"measurement": "mRNA levels Scd1", "setting": "[1]", "value": "1.593 and 1.385 and 1.755 and 1.2873 and 1.57 and 1.603"}, {"measurement": "relative mRNA levels Cpt1, Difference (Mean of VEH - Mean of APC)", "setting": "Figure 6e", "value": -0.4965}, {"measurement": "relative mRNA levels Glut4, Difference (Mean of VEH - Mean of APC)", "setting": "Figure 6e", "value": -0.8396}, {"measurement": "relative mRNA levels Hsl, Difference (Mean of VEH - Mean of APC)", "setting": "Figure 6e", "value": -0.512}, {"measurement": "relative mRNA levels Mgl1, Difference (Mean of VEH - Mean of APC)", "setting": "Figure 6e", "value": -0.489}, {"measurement": "relative mRNA levels Pgc-1α, Difference (Mean of VEH - Mean of APC)", "setting": "Figure 6e", "value": 0.4001}, {"measurement": "relative mRNA levels Pgc-1β, Difference (Mean of VEH - Mean of APC)", "setting": "Figure 6e", "value": 0.2648}, {"measurement": "relative mRNA levels Scd1, Difference (Mean of VEH - Mean of APC)", "setting": "Figure 6e", "value": 0.2529}, {"measurement": "relative mRNA levels Ucp1, Difference (Mean of VEH - Mean of APC)", "setting": "Figure 6e", "value": 0.6029}, {"measurement": "relative mRNA levels Ucp2, Difference (Mean of VEH - Mean of APC)", "setting": "Figure 6e", "value": -0.7752}, {"measurement": "relative mRNA levels Ucp3, Difference (Mean of VEH - Mean of APC)", "setting": "Figure 6e", "value": -0.7811}, {"measurement": "mRNA levels Rxrα, Mean of APC", "setting": "Figure 6e, BAT genes in DIO, group mean, Mean of VEH 1.022", "value": 0.997}, {"measurement": "mRNA levels Pparγ, Mean of APC", "setting": "Figure 6e, BAT genes in DIO, group mean, Mean of VEH 1.045", "value": 1.136}, {"measurement": "mRNA levels Pparα, Mean of APC", "setting": "Figure 6e, BAT genes in DIO, group mean, Mean of VEH 1.047", "value": 1.002}, {"measurement": "mRNA levels Srebf-1c, Mean of APC", "setting": "Figure 6e, BAT genes in DIO, group mean, Mean of VEH 1.079", "value": 0.67}, {"measurement": "mRNA levels Cpt1", "setting": "[2]", "value": "1.405 and 1.301 and 1.366 and 1.861 and 1.273 and 1.67"}, {"measurement": "mRNA levels Glut4", "setting": "[2]", "value": "2.222 and 2.223 and 2.091 and 1.366 and 1.861 and 1.914"}, {"measurement": "mRNA levels Hsl", "setting": "[2]", "value": "1.929 and 1.285 and 1.044 and 1.492 and 1.691 and 1.784"}, {"measurement": "mRNA levels Mgl1", "setting": "[2]", "value": "1.571 and 1.671 and 1.448 and 1.19 and 1.394 and 1.429"}, {"measurement": "mRNA levels Pgc-1a", "setting": "[2]", "value": "0.4882 and 0.6962 and 0.7342 and 0.6823 and 0.3242 and 0.5895"}, {"measurement": "mRNA levels Pgc-1b", "setting": "[2]", "value": "0.7936 and 0.7877 and 0.8205 and 0.6233 and 0.5976 and 0.7915"}, {"measurement": "mRNA levels Ppara", "setting": "[2]", "value": "0.957 and 1.069 and 1.282 and 0.4348 and 0.8215 and 1.448"}, {"measurement": "mRNA levels Pparg", "setting": "[2]", "value": "1.223 and 1.057 and 1.279 and 0.9002 and 1.182 and 1.178"}, {"measurement": "mRNA levels Rxra", "setting": "[2]", "value": "1.299 and 0.7585 and 0.6344 and 1.152 and 1.145 and 0.9935"}, {"measurement": "mRNA levels Scd1", "setting": "[2]", "value": "0.7542 and 0.5583 and 0.6317 and 0.6691 and 0.5321 and 0.7971"}, {"measurement": "mRNA levels Srebf1", "setting": "[2]", "value": "0.76 and 0.6196 and 0.6214 and 0.595 and 0.7194 and 0.7042"}, {"measurement": "mRNA levels Ucp1", "setting": "[2]", "value": "0.4272 and 0.4661 and 0.4353 and 0.3244 and 0.4398 and 0.6531"}, {"measurement": "mRNA levels Ucp2", "setting": "[2]", "value": "1.948 and 2.049 and 1.871 and 1.366 and 1.861 and 1.31"}, {"measurement": "mRNA levels Ucp3", "setting": "[2]", "value": "2.385 and 1.61 and 1.317 and 1.964 and 1.366 and 1.861"}, {"measurement": "relative mRNA levels Cpt1, Mean of APC", "setting": "[3]", "value": 1.479}, {"measurement": "relative mRNA levels Glut4, Mean of APC", "setting": "[3]", "value": 1.946}, {"measurement": "relative mRNA levels Hsl, Mean of APC", "setting": "[3]", "value": 1.538}, {"measurement": "relative mRNA levels Mgl1, Mean of APC", "setting": "[3]", "value": 1.451}, {"measurement": "relative mRNA levels Pgc-1α, Mean of APC", "setting": "[3]", "value": 0.5858}, {"measurement": "relative mRNA levels Pgc-1β, Mean of APC", "setting": "[3]", "value": 0.7357}, {"measurement": "relative mRNA levels Scd1, Mean of APC", "setting": "[3]", "value": 0.6571}, {"measurement": "relative mRNA levels Ucp1, Mean of APC", "setting": "[3]", "value": 0.4576}, {"measurement": "relative mRNA levels Ucp2, Mean of APC", "setting": "[3]", "value": 1.734}, {"measurement": "relative mRNA levels Ucp3, Mean of APC", "setting": "[3]", "value": 1.751}, {"measurement": "mRNA of Srebf-1c, Mean Diff. APC - VEH", "setting": "[4]", "value": 0.1559}, {"measurement": "mRNA of Srebf-2, Mean Diff. APC - VEH", "setting": "[4]", "value": -0.03887}, {"measurement": "mRNA of Srebf-1c, Mean 1 (APC)", "setting": "[5]", "value": 0.6887}, {"measurement": "mRNA of Srebf-2, Mean 1 (APC)", "setting": "[5]", "value": 0.7827}]}]}
